For this test, the system named is ACE2. Nature of the test: Western blot analysis of amount of ACE2 protein expressed in HepG2 cells. Type of test: cell-based, human. Particulars: compared to control (untreated). The method, then:
(i) Human liver cancer-derived cell strain HepG2 was cultured for 2 days with Dulbecco's modified Eagle medium (DMEM) comprising 10% fetal bovine serum (FBS) under 5% CO2.
(ii) After 2 days, 5-aminolevulinic acid hydrochloride salt (ALA) was supplemented to the DMEM comprising FBS to a final concentration of 1 mM, and the cells of (i) were cultured in said medium at 37° C. for 48 hours. Note that those without any supplements was set as the control.
(iii) After 48 hours, the cell supernatant was discarded, the cells were washed with PBS, and then Lysis buffer A (+) (50 mM Tris-HCl (pH 7.4), 20 mM N-methylmaleimide, 1 mM DTT, 1% (v/v) Triton X-100, and Protease inhibitor cocktail) was added, and the cell lysate was collected. Homogenization and centrifugation (3,000 rpm, 10 minutes, 4 °C) were then performed, and the residue was removed. A part of the cell lysate collected was quantified for proteins with the Bradford method, and the remainder was mixed with SDS sample buffer (50 mM Tris-HC1, pH 6.8, 2% SDS, 2.5% mercaptoethanol, 10% glycerol, 0.01% bromophenol blue), and stored frozen at −30° C. The prepared sample was subjected to 7.5% SDS-polyacrylamide electrophoresis, the 7.5% SDS-polyacrylamide gel after electrophoresis was transferred to a membrane, and the transfer was confirmed with
Ponceau S solution. After the transfer was confirmed, Western blot analysis employing rabbit anti-human ACE2 antibody (Abcom, ab108252) and HRP-labeled anti-rabbit IgG secondary antibody (Cell Signaling Technology, 7074S) was performed by conventional means.
As internal standards, each sample was subjected to 7.5% SDS-polyacrylamide electrophoresis, the 7.5% SDS-polyacrylamide gel after electrophoresis was transferred to a membrane, and the transfer was confirmed with Ponceau S solution. After the transfer was confirmed, Western blot analysis employing mouse anti-human actin antibody (MP biomedicals, 691001) and HRP-labeled anti-mouse IgG secondary antibody (Cell Signaling Technology, 7076S) was performed by conventional means. […]
In general terms: In western blotting, separated proteins are transferred to a membrane and probed.

Regarding sodium ferrous citrate [SFC], the “amount of ACE2 protein expressed” value (Experiment 2, SFC only 0.5 mM) is “no reduction”.
Consider `Cl.NCC(=O)CCC(=O)O` [ALA, 5-aminolevulinic acid hydrochloride salt], for which the “amount of ACE2 protein expressed” value is on record as “significantly reduced” (Experiment 1, ALA 1 mM, 48 hours) and “reduced” (Experiment 2, ALA 1 mM).

(Values after patent US20240189269A1, “PHARMACEUTICAL COMPOSITION FOR SUPPRESSING TMPRSS2 EXPRESSION” (Tokyo Institute of Technology, priority 2021, published 2024).)
